{
  "source": "patent US10428030B2",
  "about": "“Heterocycle derivatives and their use for the treatment of CNS disorders” (Trillium Therapeutics Inc., priority 2015, dated 2019)",
  "key": {"mouse [1]": {"test_system": "mouse", "conditions": "literature report; cited from earlier work"}, "mouse [2]": {"test_system": "mouse", "conditions": "literature report; cited from earlier work", "remark": "listed apart in the source"}, "[3]": {"test_system": "Frings audiogenic seizure-susceptible mice", "experiment": "Frings audiogenic seizure (AGS)-susceptible mouse model", "type": "in vivo", "conditions": "Mus musculus, ip, sound-induced seizures", "description": "Frings audiogenic seizure (AGS)-susceptible mice model examines the ability of an investigational drug to alter the onset and/or severity of seizures in a genetic mouse model of seizure susceptibility. Mice are genetically susceptible to sound-induced reflex seizures. Their seizure phenotype is characterized by wild running, loss of righting reflex, tonic flexion, and tonic extension in response to high-intensity sound stimulation. […] For example, the prototypical anticonvulsants phenytoin and ethosuximide display widely divergent clinical spectrums in humans, but are both active against sound-induced seizures in mice. Yet, the preclinical utility of this animal model rests in the useful information that can be obtained within a genetically susceptible model of seizures. Further, efficacy in this model provides proof of concept of brain bioavailability following systemic administration. The Frings AGS-susceptible mouse has a well-validated epilepsy phenotype that makes it particularly useful as a screening model. Beginning at about 21 days of age, Frings AGS-susceptible mice display prominent seizure activity in response to a high-intensity sound stimulus. They then remain susceptible to sound throughout their life. This is in stark contrast to the DBA2J AGS-susceptible mouse, which is the other common model of sound-induced seizures, as DBA2J mice are only susceptible to sound-induced seizures during a narrow developmental window (post-natal days 18-30). Thus, the Frings AGS-susceptible mouse seizures respond to a wide range of CNS-active drugs and display sound-induced seizures throughout their lifetime. In this regard, Frings AGS-susceptible mice are a highly useful screening model for the identification and characterization of compounds potentially effective against inherited epilepsy.\nMale and female Frings audiogenic seizure-susceptible mice (18-25 g) are maintained in an in-house colony at the University of Utah. For each screening test, groups of 8 mice each are treated i.p. with varying doses of the investigational compound. At the time of peak effect as determined in the MES test (Test 4 in CF1 mice), individual mice are placed in a round plexiglass jar (diameter, 15 cm, height, 18 cm) and exposed to a sound stimulus of 110 decibels (11 KHz) delivered for 20 sec. Mice are observed for 25 sec for the presence or absence of hind limb tonic extension. Mice not displaying hind limb tonic extension are considered protected. The severity of a seizure may also be quantitated by assigning a numerical score to the observed response, e.g. no response—0; wild running for <10 sec—1; wild running for >10 sec—2; clonic seizure—3; forelimb extension/hind limb flexion—4; tonic seizure—5."}, "CD-1 mice": {"test_system": "CD-1 mice", "experiment": "s.c Pentylenetetrazole (PTZ) mouse model", "type": "in vivo", "conditions": "ip, PTZ 85 mg/kg s.c.", "experimental": "(§1) Male, Sprague-Dawley rats and CD-1 mice were used for all studies. All animals were allowed ad-lib access to food and water except during experiment. Animals were housed within an animal vivarium maintained under a 12 h light:dark cycle (lights on: 07:00 h), and all experiments were conducted in the animals light phase. For all experiments, animals were habituated to the vivarium for a minimum of 72 h before experimentation. The experimental procedures used in the present investigation were conducted under the Association for Assessment and Accreditation of Laboratory Animal Care (AAALAC) and the Canadian Council on Animal Care (CCAC) guidelines.\n(§2) All compounds were sonicated in 5% Tween 80® in saline or methylcellulose 0.5% (wgt/vol), using MC and sterile water and injected in a dose volume of 5 ml/kg or 10 ml/kg (rat), and 10 ml/kg (mouse). Drugs were administered by either the oral, intraperitoneal or intravenous route.\nSixty minutes following drug or vehicle pretreatment, all mice received a single subcutaneous injection of pentylenetetrazol (PTZ; 85 mg/kg). The animals were then transferred to single observation cages (dimension: 11.5″×7.5″×5″) and observed continuously for 30 min. […] In the event of a seizure, the onset latency from PTZ injection was recorded."}, "Male Sprague-Dawley rats": {"test_system": "Male Sprague-Dawley rats", "experiment": "Maximal Electroshock Seizure (MES) rat model", "type": "in vivo", "conditions": "po, 4 hours", "experimental": "as §1, §2\nMale Sprague-Dawley rats of body weight 80-100 g were used for these studies. Each experiment was conducted over 3 consecutive days. On day 1 and 2, each rat received a single electrical stimulus (150 mA, 0.2 s duration, 60 Hz) via corneal electrodes moistened with saline (Shock stimulator type 221: Harvard apparatus). […] Typically this reflected approximately 70-90% of the initial group.\n(§3) On the test day following a defined drug pretreatment period, rats received a maximal electroshock (150 mA, 0.2 s duration, 60 Hz) via corneal electrodes. Protection was defined as absence of a full tonic seizure within 10 s of stimulus delivery. Twenty minutes before the MES procedure, the animals were tested on a fixed speed rotorod (best score from 3 trials at 8 r.p.m, trial duration=60 s) to give an early assessment of drug effect on gross motor function."}, "[4]": {"test_system": "Frings audiogenic seizure-susceptible mice", "conditions": "general statement on prototypical anticonvulsants; cited from earlier work"}, "[5]": {"experiment": "Fixed speed rotorod, gross motor function (rat)", "conditions": "male, Sprague-Dawley, in vivo, po", "experimental": "as §3"}, "MTLE mice": {"test_system": "MTLE mice", "experiment": "Model of mesial temporal lobe epilepsy (mTLE), hippocampal paroxysmal discharges", "type": "in vivo, mouse", "conditions": "after 600 mg/kg, mice 4 weeks after intra-hippocampal KA", "description": "The MTLE mouse model recapitulates many of the characteristics observed in human patients with temporal lobe epilepsy (TLE). The MTLE mouse is characterized by an initial neurotoxic event, a unilateral intrahippocampal injection of kainic acid (KA) into the dorsal hippocampus, which induces non-convulsive SE lasting several hours. This initial event is followed by a latent phase. Two to three weeks after KA injection, spontaneous recurrent hippocampal paroxysmal discharges (HPD) are only recorded in the epileptic hippocampus and remain stable and stereotyped for the whole life of the animal. These HPDs occur spontaneously about 30-60 times per hour when the animals are in a state of quiet wakefulness, generally last 15-20 sec and are associated with behavioral arrest and/or mild motor automatisms. Adult, male […] mice are stereotaxically injected with kainate (1 nmol in 100 nL) and implanted with 1 bipolar electrode in the dorsal hippocampus, and then allowed to recover for four weeks prior to evaluation in the screening protocol. Using a group size of 4 MTLE mice per dose of investigational compound, the compounds are typically first tested using the 6 Hz 44 mA ED50 value. […] For all acute studies, drug conditions are counter-balanced in MTLE mice over a two week period using a Latin square dosing protocol. Animals are used as their own controls. Digital EEG recordings are performed on freely moving animals for 20 minutes pre-injection (reference period) and 90 minutes post-injection. Data are analyzed for the period of 10 minutes before and 10 minutes after peak time of effect of the investigational compound, as determined from the 6 Hz 44 mA seizure test. The effects of the injected compound are compared to the reference period. Any accompanying effect on animal behavior is noted. Data are presented as the raw number of HPDs during the analyzed 20 min period (10 minutes before and 10 minutes after peak time of effect of compound) for each MTLE mouse, group mean number of HPDs, and effect on suppression as represented by percent of baseline HPD values."}},
  "data": [
    {"smiles": "O=C1CCc2cc(OCc3ccccc3)ccc2N1", "values": [
      {"measurement": "activity in mouse electroshock seizure (MES) model", "setting": "mouse [1]", "value": "active"},
      {"measurement": "activity in pentylenetetrazole (PTZ) model", "setting": "mouse [2]", "value": "active"}
    ]},
    {"smiles": "NC(=O)N1c2ccccc2C=Cc2ccccc21", "note": "[Carbamazepine]", "values": [
      {"measurement": "ED50", "setting": "[3]", "value": 11.2, "unit": "mg/kg"}
    ]},
    {"smiles": "O=C1COc2cc(OCc3ccccc3)ccc2N1", "note": "[Compound 1, 7-Benzyloxy-4H benzo[1,4]oxazin-3-one, reference compound]", "values": [
      {"measurement": "ED50", "setting": "CD-1 mice", "value": "> 300", "unit": "mg/kg"},
      {"measurement": "ED50", "setting": "Male Sprague-Dawley rats", "value": "> 300", "unit": "mg/kg"}
    ]},
    {"smiles": "CCC1(C)CC(=O)NC1=O", "note": "(centres unmarked) [Ethosuximide]", "values": [
      {"measurement": "activity against sound-induced seizures in mice", "setting": "[4]", "value": "active"},
      {"measurement": "ED50", "setting": "[3]", "value": 328, "unit": "mg/kg"}
    ]},
    {"smiles": "NC(=O)OCC(COC(N)=O)c1ccccc1", "note": "[Felbamate]", "values": [
      {"measurement": "ED50", "setting": "[3]", "value": 10, "unit": "mg/kg"}
    ]},
    {"smiles": "NCC1(CC(=O)O)CCCCC1", "note": "[Gabapentin]", "values": [
      {"measurement": "ED50", "setting": "[3]", "value": 91.1, "unit": "mg/kg"}
    ]},
    {"smiles": "O=C1Nc2ccc(OCc3ccccc3)cc2OC1(F)F", "note": "[I(D), 7-Benzyloxy-2,2-difluoro-4H-benzo[1,4]oxazin-3-one]", "values": [
      {"measurement": "ED50 at 4 hours", "setting": "[5]", "value": "> 120", "unit": "mg/kg"},
      {"measurement": "ED50", "setting": "Male Sprague-Dawley rats", "value": "30.5 ± 0.8", "unit": "mg/kg"}
    ]},
    {"smiles": "Nc1nnc(-c2cccc(Cl)c2Cl)c(N)n1", "note": "[Lamotrigine]", "values": [
      {"measurement": "ED50", "setting": "[3]", "value": 2.39, "unit": "mg/kg"}
    ]},
    {"smiles": "CC[C@@H](C(N)=O)N1CCCC1=O", "note": "[Levetiracetam, reference compound]", "values": [
      {"measurement": "Effect (% baseline)", "setting": "MTLE mice; HPD", "value": 68.7, "unit": "% baseline"},
      {"measurement": "Mean HPD Counts", "setting": "MTLE mice", "value": 14.3}
    ]},
    {"smiles": "O=C1NC(=O)C(c2ccccc2)(c2ccccc2)N1", "note": "[Phenytoin]", "values": [
      {"measurement": "activity against sound-induced seizures in mice", "setting": "[4]", "value": "active"},
      {"measurement": "ED50", "setting": "[3]", "value": 3.8, "unit": "mg/kg"}
    ]},
    {"smiles": "CCCC(CCC)C(=O)O", "note": "[Valproic Acid]", "values": [
      {"measurement": "ED50", "setting": "[3]", "value": 155, "unit": "mg/kg"}
    ]}
  ]
}
